Reference: ChEMBL document CHEMBL1201862, “PubChem BioAssay data set” (2004)
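These data come from cells grown in 96-well plates and exposed to compound for 48 hours at five concentrations. The concentration for 50% growth inhibition is given as GI50.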 Calls of active or inactive are those of the source. No stated cut-off is given here; in the data, active = GI50 up to about 1.1 µM and inactive = higher.

Tests used:
Assay in all cases: DTP human tumour cell line panel, 48 h
SR = system: SR
MOLT-4 = system: MOLT-4
M14 = system: M14
HCT-15 = system: HCT-15
MCF7 = system: MCF7
RXF 393 = system: RXF 393
CAKI-1 = system: CAKI-1
SNB-19 = system: SNB-19
COLO 205 = system: COLO 205
K562 = system: K562
HCC 2998 = system: HCC 2998
HOP-92 = system: HOP-92
U-251 = system: U-251
NCI-H23 = system: NCI-H23
MDA-MB-435 = system: MDA-MB-435
NCI-H522 = system: NCI-H522
SK-MEL-28 = system: SK-MEL-28
SK-OV-3 = system: SK-OV-3
SK-MEL-5 = system: SK-MEL-5
SN12C = system: SN12C

Row | Structure (SMILES) | GI50 (SR) | GI50 (MOLT-4) | GI50 (M14) | GI50 (HCT-15) [µM] | GI50 (MCF7) | GI50 (RXF 393) | GI50 (CAKI-1) | GI50 (SNB-19) | GI50 (COLO 205) | GI50 (K562) | GI50 (HCC 2998) | GI50 (HOP-92) | GI50 (U-251) | GI50 (NCI-H23) | GI50 (MDA-MB-435) | GI50 (NCI-H522) | GI50 (SK-MEL-28) | GI50 (SK-OV-3) | GI50 (SK-MEL-5) | GI50 (SN12C)
1 | NS(=O)(=O)c1ccc(NC(=S)NC=C2C(=O)c3ccccc3C2=O)cc1 | 42 µM (inactive) | 61.9 µM (inactive) | > 100 µM (inactive) | 38.9 | 17.9 µM (inactive) | 43.6 µM (inactive) | 86.5 µM (inactive) | > 100 µM (inactive) | > 100 µM (inactive) | 35.8 µM (inactive) | 38.3 µM (inactive) | 23.7 µM (inactive) | 76.2 µM (inactive) | > 100 µM (inactive) | 91.4 µM (inactive) | 65.9 µM (inactive) | > 100 µM (inactive) | > 100 µM (inactive) | 47 µM (inactive) | > 100 µM (inactive)
2 | CCc1ccc(/C=C\c2cc(OC)c(OC)c(OC)c2)cc1 | 0.00247 µM (active) | 0.043 µM (active) | 0.0502 µM (active) | 0.0449 | 0.0375 µM (active) | 0.00908 µM (active) | 0.038 µM (active) | 0.0148 µM (active) | 0.0122 µM (active) | 0.00845 µM (active) | 0.0492 µM (active) | 0.00813 µM (active) | 0.0102 µM (active) | 0.0461 µM (active) | 0.00204 µM (active) | 0.0118 µM (active) | 0.0627 µM (active) | 0.013 µM (active) | 0.0181 µM (active) | 0.0159 µM (active)
3 | O=c1[nH]c2c(c(=O)[nH]1)SSC2 | 0.275 µM (active) | 1.3 µM (inactive) | 2 µM (inactive) | 27.7 | 17.4 µM (inactive) | 14.5 µM (inactive) | 18.9 µM (inactive) | 25 µM (inactive) | 21.4 µM (inactive) | 0.74 µM (active) | 16.2 µM (inactive) | 2.51 µM (inactive) | 11.8 µM (inactive) | 12.7 µM (inactive) | 2.04 µM (inactive) | 17.3 µM (inactive) | 5.79 µM (inactive) | 21.4 µM (inactive) | 13.8 µM (inactive) | 2.75 µM (inactive)
4 | COc1c(-c2cc(C)c(Cl)c(=O)[nH]2)c(O)c(OC)c2occc12 | 81.8 µM (inactive) | > 100 µM (inactive) | > 100 µM (inactive) | > 100 | > 100 µM (inactive) | 52.2 µM (inactive) | > 100 µM (inactive) | 96.4 µM (inactive) | > 100 µM (inactive) | > 100 µM (inactive) | > 100 µM (inactive) | 23.1 µM (inactive) | > 100 µM (inactive) | > 100 µM (inactive) | > 100 µM (inactive) | > 100 µM (inactive) | > 100 µM (inactive) | > 100 µM (inactive) | 78.3 µM (inactive) | > 100 µM (inactive)
5 | COC(=O)[C@]1(C)CCC[C@]2(C)[C@H]3CC[C@]4(C(C)C)OO[C@@H](O4)[C@]34O[C@@H]4C[C@H]21 | 0.238 µM (active) | 1.21 µM (inactive) | 4.8 µM (inactive) | 2.16 | 2.19 µM (inactive) | 4.28 µM (inactive) | 0.384 µM (active) | 10.8 µM (inactive) | 2.14 µM (inactive) | 1.99 µM (inactive) | 2.15 µM (inactive) | 1.97 µM (inactive) | 3.65 µM (inactive) | 6.56 µM (inactive) | 1.79 µM (inactive) | 1.43 µM (inactive) | 16.3 µM (inactive) | 2.32 µM (inactive) | 1.69 µM (inactive) | 3.02 µM (inactive)
6 | Nc1cc2c3c(c1)Oc1cc(N)cc4c1C3c1c(cc(N)cc1O4)O2 | 15.5 µM (inactive) | 39.6 µM (inactive) | 26.9 µM (inactive) | 18.3 | 24.8 µM (inactive) | 12.3 µM (inactive) | 14.4 µM (inactive) | 37.5 µM (inactive) | 16.1 µM (inactive) | 30.8 µM (inactive) | 34.9 µM (inactive) | 57.5 µM (inactive) | 43.1 µM (inactive) | 33 µM (inactive) | 29 µM (inactive) | 21.2 µM (inactive) | 47.3 µM (inactive) | 46.5 µM (inactive) | 11.9 µM (inactive) | 16.7 µM (inactive)
7 | CC(C)(C)OC(=O)/C=C/[C@@H](CCC(=O)/C=C/[C@H](/C=C\CCCC(=O)O)NC1(c2ccccc2)c2ccccc2-c2ccccc21)O[Si](C)(C)C(C)(C)C | 19.4 µM (inactive) | 9.16 µM (inactive) | 14 µM (inactive) | 12.3 | 15.9 µM (inactive) | 11.5 µM (inactive) | 17.9 µM (inactive) | 20.6 µM (inactive) | 21.5 µM (inactive) | 16 µM (inactive) | 16.8 µM (inactive) | 4.8 µM (inactive) | 16.3 µM (inactive) | 16.3 µM (inactive) | 17.8 µM (inactive) | 18.5 µM (inactive) | 25.8 µM (inactive) | 46.6 µM (inactive) | 16.9 µM (inactive) | 15.8 µM (inactive)
8 | Cc1ccc(N(C=O)c2c([N+](=O)[O-])cc([N+](=O)[O-])c3c2=[N+]([O-])CN=3)cc1 | 24.9 µM (inactive) | 23.9 µM (inactive) | 20.8 µM (inactive) | 15.4 | 21.2 µM (inactive) | 20.7 µM (inactive) | 32.3 µM (inactive) | 66.8 µM (inactive) | 28.5 µM (inactive) | 27.3 µM (inactive) | 14 µM (inactive) | 16.2 µM (inactive) | 28.4 µM (inactive) | 23.5 µM (inactive) | 30.8 µM (inactive) | 19.2 µM (inactive) | 49.4 µM (inactive) | > 100 µM (inactive) | 13.5 µM (inactive) | 31.6 µM (inactive)
9 | O=C(/C=C\c1ccsc1)c1ccccc1 | 2.38 µM (inactive) | 2.94 µM (inactive) | 8.47 µM (inactive) | 3.61 | 1.74 µM (inactive) | 5.75 µM (inactive) | 3.71 µM (inactive) | 13.2 µM (inactive) | 16.2 µM (inactive) | 4 µM (inactive) | 9.44 µM (inactive) | 17.6 µM (inactive) | 3.78 µM (inactive) | 5.7 µM (inactive) | 10.6 µM (inactive) | 1.68 µM (inactive) | 12.4 µM (inactive) | 17.1 µM (inactive) | 13.8 µM (inactive) | 12 µM (inactive)
10 | CCOC(=O)[C@@H]1C[C@@H]1c1ccc(O)c(O)c1 | 14.5 µM (inactive) | 6.18 µM (inactive) | 11 µM (inactive) | 45.5 | 16.9 µM (inactive) | 21.1 µM (inactive) | 38.1 µM (inactive) | 49 µM (inactive) | 27.4 µM (inactive) | 13.8 µM (inactive) | 24.9 µM (inactive) | 36.7 µM (inactive) | 72.1 µM (inactive) | 43.4 µM (inactive) | 16.9 µM (inactive) | 4.62 µM (inactive) | 30.8 µM (inactive) | 44.8 µM (inactive) | 14.4 µM (inactive) | 78.2 µM (inactive)
11 | COc1ccc(/C=C2\CN(C)CC3=C2OC(N)=C(C#N)C3c2ccc(OC)cc2)cc1 (stereo not given) | 15.2 µM (inactive) | 5.81 µM (inactive) | 97.1 µM (inactive) | 55.6 | 19.5 µM (inactive) | 20.7 µM (inactive) | 69.7 µM (inactive) | > 86.7 µM (inactive) | > 52.1 µM (inactive) | 33.6 µM (inactive) | 23.8 µM (inactive) | 4.66 µM (inactive) | 38 µM (inactive) | > 68.2 µM (inactive) | 17.7 µM (inactive) | 14.5 µM (inactive) | > 100 µM (inactive) | 5.64 µM (inactive) | > 62.1 µM (inactive) | 35.4 µM (inactive)
12 | CC(=O)O/C=C\OC1CCCC1(c1ccccc1)c1ccccc1 (stereo not given) | 1.98 µM (inactive) | 2.79 µM (inactive) | 2.47 µM (inactive) | 2.13 | 2.21 µM (inactive) | 2.3 µM (inactive) | 4.5 µM (inactive) | 11.2 µM (inactive) | 4.08 µM (inactive) | 2.16 µM (inactive) | 8.91 µM (inactive) | 1.82 µM (inactive) | 3.52 µM (inactive) | 2.49 µM (inactive) | 1.96 µM (inactive) | 10.1 µM (inactive) | 2.1 µM (inactive) | 14.4 µM (inactive) | 2.61 µM (inactive) | 3.32 µM (inactive)
13 | CCOc1ccc2c(c1)C(/C(C(Cl)=C(Cl)Cl)=[N+](/[O-])OC(=O)c1ccccc1)=N2 | 53.1 µM (inactive) | 39 µM (inactive) | 58.7 µM (inactive) | 50.2 | 39 µM (inactive) | 47.8 µM (inactive) | 32.6 µM (inactive) | 93.1 µM (inactive) | 40.1 µM (inactive) | 38.7 µM (inactive) | 59.2 µM (inactive) | 38.1 µM (inactive) | 46.7 µM (inactive) | 48.6 µM (inactive) | 29.6 µM (inactive) | 35.2 µM (inactive) | > 100 µM (inactive) | > 100 µM (inactive) | 35.3 µM (inactive) | 78.9 µM (inactive)
14 | CC(=O)Nc1ccc2cc3c(nc2n1)c1cccnc1n3S(=O)(=O)c1ccccc1 | 28.3 µM (inactive) | > 100 µM (inactive) | > 100 µM (inactive) | > 100 | > 100 µM (inactive) | > 100 µM (inactive) | > 100 µM (inactive) | > 100 µM (inactive) | > 100 µM (inactive) | > 100 µM (inactive) | > 100 µM (inactive) | > 100 µM (inactive) | > 100 µM (inactive) | 10.5 µM (inactive) | > 100 µM (inactive) | > 100 µM (inactive) | > 100 µM (inactive) | > 100 µM (inactive) | > 100 µM (inactive) | > 100 µM (inactive)
